Consider seven compounds from US20140142052A1, “PHOSPHORYLATED POLYOLS, PYROPHOSPHATES, AND DERIVATIVES THEREOF HAVING BIOLOGICAL ACTIVITY” (NormOxys, Inc., priority 2012, published 2014).

The target of assay [1] is T1, Human PI3Kβ (p110β/p85α) (Homo sapiens, UniProt P42338).
T1 construct: N-terminal 6His-tagged recombinant full-length human p110β; 6His (N); purchased Reaction Biology Corporation (RBC), Malvern, Pa; host or cells: Baculovirus infected Sf21 cells
In words: PI3K HTRF assay, PI3Kβ. Format: biochemical.

In assay [2] the test system is class I PI3K. In words: PI3K HTRF assay (Reaction Biology), class I PI3K. Format: biochemical, human. To be noted: Yes = inhibition.
Assay [3] has as its target T2, Human PI3Kδ (p110δ/p85α) (Homo sapiens, UniProt O00329).
T2 construct: N-terminal GST tagged recombinant full-length human p110δ; GST (N); purchased Reaction Biology Corporation (RBC), Malvern, Pa; host or cells: Baculovirus infected Sf9 cells
In words: PI3K HTRF assay, PI3Kδ. It is filed as biochemical.

Assay [4] deals with hemoglobin (Homo sapiens, UniProt P68871+P69905). Particulars: background statement; can displace Hb-bound BPG; cited from earlier work.
The target of assay [5] is T3, hemoglobin in human whole blood (WB) (Homo sapiens, UniProt P68871+P69905).
T3 construct: Human whole blood was freshly withdrawn from healthy donors in heparinized microtubes; from tissue; host or cells: fresh human whole blood from healthy donors
Description: Oxygen equilibrium curve (Hemox Analyzer), P50 in human whole blood. Format: cell-based. To be noted: blood matrix WB; for P50 (Torr): incubated 1-2 h at 37° C., n=3; for P50 increase (%): versus P50 control. The procedure:
(§1) Some of the compounds described herein were tested for P50, the partial pressure of oxygen for half-saturation, on free hemoglobin (Hb) as well as human whole blood (WB) in different concentrations.
Human whole blood was freshly withdrawn from healthy donors in heparinized microtubes. The pH of the compound solutions was adjusted to approximately 7.0 and whole blood volumes at 1:1 ratios were incubated individually for 1-2 h at 37° C. with the above compounds. The measurement of the OEC was carried out with the Hemox Analyzer (TCS Scientific Co.) under the following conditions: pH 7.4, 135 mM NaCl, 5 mM KCl and 30 mM TES (N-[tris(hydroxymethyl)methyl]-2-aminoethanesulfonic acid) buffer at 37° C.

Assay [6] concerns the target T4, free hemoglobin (Hb) (Homo sapiens, UniProt P68871+P69905).
T4 construct: the cells were hemolysed by addition of 2 volumes of cold distilled water; tissue EFS-Alsace; host or cells: red blood cell concentrate
Description: Oxygen equilibrium curve (Hemox Analyzer), P50 on free hemoglobin. It is filed as biochemical. To be noted: blood matrix Hb, 100 mM compound; for P50 (Torr): effector/Hb ratio 20, pH 7.4, 37° C., n=3; for P50 increase (%): versus P50 control. The procedure: as §1
The hemoglobin solution was prepared from red blood cells concentrate (EFS-Alsace) by washing three times with 1 volume of saline (1500×g, 10 min), the cells were hemolysed by addition of 2 volumes of cold distilled water. After centrifugation (7000×g, 30 min) for stroma removal, 5 ml of the clear hemoglobin solution were placed on a 2.5 cm×30 cm column of Sephadex G-25 equilibrated with 0.1 M sodium chloride+10^−5 M EDTA. The protein was eluted with the same solution at a rate of about 20 ml/h [Benesch, R.; Benesch, R. E. and Yu, C. I. Reciprocal binding of oxygen and diphosphoglycerate by human hemoglobin. Proc. Natl. Acad. Sci. USA (1968) 59, 526-532].
The allosteric modulation of the effectors was measured by the change in p50, the partial pressure of oxygen for half-saturation. The pH of the compound solutions was adjusted to approximately 7.0. Oxygen equilibrium curves (OEC) were carried out with the Hemox Analyzer (TCS Scientific Co.) under the following conditions: pH 7.4, 135 mM NaCl, 5 mM KCl and 30 mM TES (N—[tris(hydroxymethyl)methyl]-2-aminoethanesulfonic acid) buffer at 37° C. The concentration of free hemoglobin was 5·10^−3 M (577 nm, ε=58.4 mM^−1 cm^−1 per tetramer) and the final concentrations of the allosteric effectors were of 1.0·10^−1 M, resulting in an effector/Hb ratio of 20.

T3 sequence (P69905 2-142 limits assumed): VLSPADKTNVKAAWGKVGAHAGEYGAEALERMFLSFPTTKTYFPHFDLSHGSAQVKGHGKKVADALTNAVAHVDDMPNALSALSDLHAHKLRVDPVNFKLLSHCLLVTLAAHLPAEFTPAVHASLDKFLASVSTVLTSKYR
T3 sequence (P68871 2-147 limits assumed): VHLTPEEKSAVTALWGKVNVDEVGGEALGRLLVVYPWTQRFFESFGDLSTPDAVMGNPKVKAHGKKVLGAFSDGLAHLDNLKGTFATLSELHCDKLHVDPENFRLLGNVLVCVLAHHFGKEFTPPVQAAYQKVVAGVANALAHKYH
T4 sequence (P69905 2-142 limits assumed): as the sequence (P69905 2-142 limits assumed) above
T4 sequence (P68871 2-147 limits assumed): as the sequence (P68871 2-147 limits assumed) above
Chain of hemoglobin (P69905 2-142 limits assumed): as the sequence (P69905 2-142 limits assumed) above
Chain of hemoglobin (P68871 2-147 limits assumed): as the sequence (P68871 2-147 limits assumed) above
T1 sequence (P42338 whole entry): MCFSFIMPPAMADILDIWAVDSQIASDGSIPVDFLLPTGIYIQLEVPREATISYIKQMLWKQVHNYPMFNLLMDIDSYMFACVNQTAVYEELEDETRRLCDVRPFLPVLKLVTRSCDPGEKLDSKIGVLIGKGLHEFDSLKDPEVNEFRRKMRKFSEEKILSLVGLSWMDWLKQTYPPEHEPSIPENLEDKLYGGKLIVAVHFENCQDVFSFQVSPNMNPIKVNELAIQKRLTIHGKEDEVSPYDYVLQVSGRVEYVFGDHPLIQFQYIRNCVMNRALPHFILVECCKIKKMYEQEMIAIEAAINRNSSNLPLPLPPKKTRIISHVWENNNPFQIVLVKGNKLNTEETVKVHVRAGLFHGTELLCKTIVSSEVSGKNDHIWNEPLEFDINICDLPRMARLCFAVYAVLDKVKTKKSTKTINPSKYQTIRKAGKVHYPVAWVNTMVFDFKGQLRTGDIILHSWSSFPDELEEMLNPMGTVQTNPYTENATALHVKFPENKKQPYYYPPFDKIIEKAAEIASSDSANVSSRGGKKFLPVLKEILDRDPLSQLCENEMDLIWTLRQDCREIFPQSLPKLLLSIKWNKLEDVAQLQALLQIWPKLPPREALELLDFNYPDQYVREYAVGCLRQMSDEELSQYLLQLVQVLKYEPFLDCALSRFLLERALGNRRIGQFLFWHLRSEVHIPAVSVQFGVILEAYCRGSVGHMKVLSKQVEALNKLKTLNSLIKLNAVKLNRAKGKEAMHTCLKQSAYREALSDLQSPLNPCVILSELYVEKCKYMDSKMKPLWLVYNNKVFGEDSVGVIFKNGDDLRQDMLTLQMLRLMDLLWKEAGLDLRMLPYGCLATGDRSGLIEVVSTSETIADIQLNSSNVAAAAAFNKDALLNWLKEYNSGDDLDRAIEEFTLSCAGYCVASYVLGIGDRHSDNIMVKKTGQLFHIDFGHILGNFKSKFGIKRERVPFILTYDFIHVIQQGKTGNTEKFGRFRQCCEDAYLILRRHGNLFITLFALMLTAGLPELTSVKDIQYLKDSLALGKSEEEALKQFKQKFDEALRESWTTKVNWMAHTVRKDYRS
T1 sequence (P27986 whole entry partner): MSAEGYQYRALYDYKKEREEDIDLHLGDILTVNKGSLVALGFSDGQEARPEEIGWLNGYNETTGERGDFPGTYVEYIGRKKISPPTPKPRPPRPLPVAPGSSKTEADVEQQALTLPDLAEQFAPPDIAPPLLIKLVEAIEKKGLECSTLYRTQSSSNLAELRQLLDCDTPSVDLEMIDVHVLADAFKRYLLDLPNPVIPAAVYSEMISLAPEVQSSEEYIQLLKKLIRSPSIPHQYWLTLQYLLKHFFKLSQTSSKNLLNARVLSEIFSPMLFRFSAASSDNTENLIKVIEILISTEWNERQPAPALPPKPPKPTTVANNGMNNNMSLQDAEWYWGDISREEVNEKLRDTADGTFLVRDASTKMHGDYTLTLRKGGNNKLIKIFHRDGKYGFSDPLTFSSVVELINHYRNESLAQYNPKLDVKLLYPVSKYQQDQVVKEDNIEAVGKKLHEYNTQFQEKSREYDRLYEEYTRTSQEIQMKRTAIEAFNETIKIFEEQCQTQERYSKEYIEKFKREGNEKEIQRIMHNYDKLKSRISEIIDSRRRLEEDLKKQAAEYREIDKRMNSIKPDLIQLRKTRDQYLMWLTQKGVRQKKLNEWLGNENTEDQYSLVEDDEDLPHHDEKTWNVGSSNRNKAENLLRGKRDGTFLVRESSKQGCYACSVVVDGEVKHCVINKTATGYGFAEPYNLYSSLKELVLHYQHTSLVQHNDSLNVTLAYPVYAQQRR
T2 sequence (O00329 whole entry): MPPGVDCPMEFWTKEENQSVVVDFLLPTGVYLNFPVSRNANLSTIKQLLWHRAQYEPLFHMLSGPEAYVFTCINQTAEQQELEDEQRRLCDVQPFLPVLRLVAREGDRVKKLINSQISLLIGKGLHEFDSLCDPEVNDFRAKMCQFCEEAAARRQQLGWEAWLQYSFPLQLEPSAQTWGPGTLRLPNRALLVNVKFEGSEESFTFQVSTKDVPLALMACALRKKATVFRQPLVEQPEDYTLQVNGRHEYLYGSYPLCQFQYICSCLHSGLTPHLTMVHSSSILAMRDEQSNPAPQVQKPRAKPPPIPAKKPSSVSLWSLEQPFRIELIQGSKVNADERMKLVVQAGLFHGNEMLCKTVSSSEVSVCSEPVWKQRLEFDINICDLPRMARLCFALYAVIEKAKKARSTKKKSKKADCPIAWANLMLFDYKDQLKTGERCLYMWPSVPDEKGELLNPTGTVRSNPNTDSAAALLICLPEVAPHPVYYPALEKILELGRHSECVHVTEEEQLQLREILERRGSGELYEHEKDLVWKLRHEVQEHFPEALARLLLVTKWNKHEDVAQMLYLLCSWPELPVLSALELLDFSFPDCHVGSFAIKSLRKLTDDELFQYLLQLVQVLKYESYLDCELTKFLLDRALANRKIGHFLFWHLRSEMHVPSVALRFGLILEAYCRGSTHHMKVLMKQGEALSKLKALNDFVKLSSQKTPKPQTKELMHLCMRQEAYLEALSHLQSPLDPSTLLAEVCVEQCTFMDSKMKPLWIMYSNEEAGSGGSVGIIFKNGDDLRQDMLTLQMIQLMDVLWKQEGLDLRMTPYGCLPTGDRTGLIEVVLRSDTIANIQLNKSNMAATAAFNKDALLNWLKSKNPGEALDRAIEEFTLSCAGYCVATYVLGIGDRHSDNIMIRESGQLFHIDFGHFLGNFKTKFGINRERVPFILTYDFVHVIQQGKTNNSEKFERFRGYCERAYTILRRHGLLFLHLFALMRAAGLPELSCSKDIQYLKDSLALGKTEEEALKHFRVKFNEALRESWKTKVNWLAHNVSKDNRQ
T2 sequence (P27986 whole entry partner): as the sequence (P27986 whole entry partner) above

For the compound `O=P1(O)OC2C3OP(=O)(O)OP(=O)(O)OC3C3OP(=O)(O)OP(=O)(O)OC3C2OP(=O)(O)O1` (stereo not shown) [OXY111A, Myo-ITPP], in assay [1], the “activity against PI3Kβ” value was “showed activity”. Also, in assay [2], the “PI3 Kinase Inhibition” value is listed as “Yes”. In addition, the “activity against PI3Kδ” value in assay [3] is on record as “showed activity”.

For the compound `CCOC(=O)[C@@H]1OP(=O)([O-])OP(=O)([O-])O[C@H]1C(=O)OCC.[Na+].[Na+]` [OXY3012, L-DET], the “PI3 Kinase Inhibition” value in assay [2] is listed as “Yes”.

Turning to `O=P(O)(O)O[C@H]1[C@H](OP(=O)(O)O)[C@@H](OP(=O)(O)O)[C@H](OP(=O)(O)O)[C@@H](OP(=O)(O)O)[C@H]1OP(=O)(O)O` [Phytic acid, myo-inositol hexakisphosphate], in assay [4], the “potency relative to BPG (fold)” value is recorded as 1000 fold.

As to `O=P(O)(O)OCC(OP(=O)(O)O)C(COP(=O)(O)O)OP(=O)(O)O` (stereo not drawn) [SP1-134, meso-erythritol tetraphosphate], the figures for the “P50 (Torr)” value in assay [5] (120 mM compound) and in assay [6] were 30.17 ± 0.94 Torr and 29.40 ± 1.20 Torr, respectively. Besides, the results for the “P50 increase (%)” value in assay [5] (120 mM compound) and in assay [6] were 17% and 151%, respectively.

For the compound “Dibutyl-L-tartrate bisphosphate [SP1-219]”, in assay [5] (60 mM compound), the “P50 (Torr)” value came to 30.91 ± 1.76 Torr and the “P50 increase (%)” value is on record as 11%. Moreover, in assay [5] (120 mM compound), the “P50 (Torr)” value is given as 30.77 ± 1.44 Torr and the “P50 increase (%)” value is 11%.

Consider L-tartrate bisphosphate [SP1-90], for which, in assay [6], the “P50 (Torr)” value was found to be 24.76 ± 1.31 Torr and the “P50 increase (%)” value is given as 127%.

meso-Me Galactarate [OXY3006]: the “PI3 Kinase Inhibition” value in assay [2] is listed as “Yes”.
